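Following 48 hours of exposure in 96-well plates, responses at five concentrations were used to interpolate endpoints linearly. GI50 marks 50% less growth.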 Calls of active or inactive are those of the source. No stated cut-off is given here; in the data, active = GI50 up to about 1.1 µM and inactive = higher.
How the values were obtained:
Assay in all cases: DTP human tumour cell line panel, 48 h
OVCAR-4 = system: OVCAR-4
SF-295 = system: SF-295
TK-10 = system: TK-10
SNB-19 = system: SNB-19
UO-31 = system: UO-31
OVCAR-3 = system: OVCAR-3
CCRF-CEM = system: CCRF-CEM
KM12 = system: KM12
EKVX = system: EKVX
OVCAR-8 = system: OVCAR-8
MOLT-4 = system: MOLT-4
CAKI-1 = system: CAKI-1
HOP-62 = system: HOP-62
HOP-92 = system: HOP-92
HCT-116 = system: HCT-116

SMILES | GI50 (OVCAR-4) | GI50 (SF-295) | GI50 (TK-10) | GI50 (SNB-19) | GI50 (UO-31) | GI50 (OVCAR-3) | GI50 (CCRF-CEM) | GI50 (KM12) | GI50 (EKVX) | GI50 (OVCAR-8) | GI50 (MOLT-4) | GI50 (CAKI-1) | GI50 (HOP-62) | GI50 (HOP-92) | GI50 (HCT-116)
CC1=C(O)C(=O)C2C(=O)C1C1Cc3ccccc3C21 (stereo not drawn) | > 100 µM (inactive) | > 100 µM (inactive) | > 100 µM (inactive) | > 100 µM (inactive) | > 100 µM (inactive) | > 100 µM (inactive) | > 100 µM (inactive) | > 100 µM (inactive) | > 100 µM (inactive) | > 100 µM (inactive) | > 100 µM (inactive) | > 100 µM (inactive) | > 100 µM (inactive) | > 100 µM (inactive) | 
O=C(CO)C1CC2C=CC1C2 (stereo not drawn) | > 100 µM (inactive) | > 100 µM (inactive) | > 100 µM (inactive) | > 100 µM (inactive) | > 100 µM (inactive) | > 100 µM (inactive) | > 100 µM (inactive) | > 100 µM (inactive) | > 100 µM (inactive) | > 100 µM (inactive) | > 100 µM (inactive) | > 100 µM (inactive) | > 100 µM (inactive) | > 100 µM (inactive) | > 100 µM (inactive)
O=[N+]([O-])[C@@H]1C2C=CC(C2)[C@H]1Cl (stereo partly drawn) | > 100 µM (inactive) | > 100 µM (inactive) | > 100 µM (inactive) | > 100 µM (inactive) | > 100 µM (inactive) | > 100 µM (inactive) | > 100 µM (inactive) | > 100 µM (inactive) | > 100 µM (inactive) | > 100 µM (inactive) | > 100 µM (inactive) | > 100 µM (inactive) | > 100 µM (inactive) | > 100 µM (inactive) | > 100 µM (inactive)
c1ccc2c(c1)OCCOCCOc1ccccc1OCCO2 | 39.3 µM (inactive) | 62.4 µM (inactive) | 45.6 µM (inactive) | 64.6 µM (inactive) | 30 µM (inactive) | 28.2 µM (inactive) | 34.4 µM (inactive) | 35.2 µM (inactive) | 75 µM (inactive) | 78 µM (inactive) | 47.5 µM (inactive) | 78 µM (inactive) | 67.1 µM (inactive) | 51.5 µM (inactive) | 40.5 µM (inactive)
CC1=C(c2cc(C(=O)Nc3ccc(Cl)c(Cl)c3)nc(N)n2)Sc2ccccc2N1 | > 100 µM (inactive) | > 100 µM (inactive) | > 100 µM (inactive) | > 100 µM (inactive) | > 100 µM (inactive) | > 100 µM (inactive) | > 100 µM (inactive) | > 100 µM (inactive) | 98.6 µM (inactive) | > 100 µM (inactive) | > 100 µM (inactive) | > 100 µM (inactive) | > 100 µM (inactive) | > 100 µM (inactive) | > 100 µM (inactive)
COc1ccc2c3c([nH]c2c1[N+](=O)[O-])C(C)N(C)CC3 (stereo not drawn) | 38 µM (inactive) | 62.8 µM (inactive) | > 100 µM (inactive) | > 100 µM (inactive) | 76.2 µM (inactive) | > 100 µM (inactive) | 32.4 µM (inactive) | 51.6 µM (inactive) | > 100 µM (inactive) | > 100 µM (inactive) | 51.6 µM (inactive) | 36.6 µM (inactive) | > 100 µM (inactive) | 34 µM (inactive) | > 100 µM (inactive)
COc1cc2c(c(OC)c1OC)-c1ccc(SC)c(=O)cc1C(CC(=O)Oc1ccc(F)cc1)C2 (stereo not drawn) | 0.741 µM (active) | 0.0359 µM (active) | 40.8 µM (inactive) | 0.255 µM (active) | 0.817 µM (active) | 0.134 µM (active) | 0.238 µM (active) | 0.158 µM (active) | 5.04 µM (inactive) | 0.333 µM (active) | 0.436 µM (active) | 0.0676 µM (active) | 0.341 µM (active) | 1.21 µM (inactive) | 0.0891 µM (active)
CCc1cc(CCC(=O)Nc2c(C)cccc2C)n[nH]1 | > 100 µM (inactive) | > 100 µM (inactive) | > 100 µM (inactive) | > 100 µM (inactive) | > 100 µM (inactive) | > 100 µM (inactive) | > 100 µM (inactive) | > 100 µM (inactive) | > 100 µM (inactive) | > 100 µM (inactive) | > 100 µM (inactive) | > 100 µM (inactive) | > 100 µM (inactive) | > 100 µM (inactive) | > 100 µM (inactive)
CCOC1=C2C(=O)OC(=O)C2C2CCCCC2=C1 (stereo not drawn) | > 100 µM (inactive) | > 100 µM (inactive) | > 100 µM (inactive) | > 100 µM (inactive) | > 100 µM (inactive) | > 100 µM (inactive) | > 100 µM (inactive) | > 100 µM (inactive) | > 100 µM (inactive) | > 100 µM (inactive) | > 100 µM (inactive) | > 100 µM (inactive) | > 100 µM (inactive) | > 100 µM (inactive) | > 100 µM (inactive)
Cc1ccc(-c2nc3c(C(=O)NCCN(C)C)cccc3[nH]2)cc1 | 22.9 µM (inactive) | 16.7 µM (inactive) | 17.7 µM (inactive) | 26.1 µM (inactive) | 9.79 µM (inactive) | 21.5 µM (inactive) | 11.5 µM (inactive) | 20 µM (inactive) | 24.4 µM (inactive) | 15.2 µM (inactive) | 3.51 µM (inactive) | 23.5 µM (inactive) | 15.9 µM (inactive) | 13.1 µM (inactive) | 5.06 µM (inactive)
O=C(N/C(=C\c1ccc(/C=C(\NC(=O)c2ccccc2)c2nc3cc(Cl)ccc3[nH]2)cc1)c1nc2cc(Cl)ccc2[nH]1)c1ccccc1 | 20.2 µM (inactive) | 28.4 µM (inactive) | 28.6 µM (inactive) | 51.9 µM (inactive) | 25.2 µM (inactive) | 22.4 µM (inactive) | 5.31 µM (inactive) | 14 µM (inactive) | 29 µM (inactive) | 27.7 µM (inactive) | 3.89 µM (inactive) | 40.9 µM (inactive) | 63.4 µM (inactive) | 35.1 µM (inactive) | 17.7 µM (inactive)
COc1cc2c(cc1OC)[Se]c1cc(OC)c(OC)cc1[Se]2 | > 10 µM (inactive) | 18.3 µM (inactive) | > 10 µM (inactive) | > 10 µM (inactive) | > 10 µM (inactive) | > 10 µM (inactive) | > 10 µM (inactive) | 6.15 µM (inactive) | > 10 µM (inactive) | > 10 µM (inactive) | > 100 µM (inactive) | > 10 µM (inactive) | > 10 µM (inactive) | 69 µM (inactive) | > 10 µM (inactive)
O=C(CSc1nnc[nH]1)C[P+](c1ccccc1)(c1ccccc1)c1ccccc1 | 94 µM (inactive) | > 100 µM (inactive) | > 100 µM (inactive) | > 100 µM (inactive) | > 100 µM (inactive) | 74.8 µM (inactive) | 78.2 µM (inactive) | > 100 µM (inactive) | > 100 µM (inactive) | > 100 µM (inactive) | 40.2 µM (inactive) | 54.6 µM (inactive) | > 100 µM (inactive) | 22.9 µM (inactive) | 
